Measured values reported in patent US20060229324A1, “Quinazolin-4-one derivatives” (priority 2002, published 2006).

Key:
[1] = target: human hematopoietic prostaglandin D2 synthase (Homo sapiens, UniProt O60760); experiment: Inhibitory activity against spleen-type (hematopoietic) prostaglandin D2 synthase, [14C]PGH2 to PGD2, TLC; format: biochemical; details: for inhibition at 10 µM / inhibition at 30 µM: read-out: Inhibitory Ratio of Prostaglandin D2 (PGD2) Synthase (%)
Description: A buffer solution of 100 mM Tris (hydroxymethyl)aminomethane/HCl buffer (pH8.0) containing glutathione (0.1 mM) and human hematopoietic prostaglandin D2 synthase (adequate quantity) was preincubated at 25° C. for 5 minutes in the presence or absence of a test compound, and then 14C labeled prostaglandin H2 ([14C]PGH2) (10 μM) was added, and the buffer solution was further incubated at 25° C. for one minute. A mixture of ether, methanol, and citric acid was added to the reaction mixture, and the ether layer was developed on silica gel thin-layer chromatography (TLC) (eluent=ether: methanol: acetic acid=90:2:1), and the PGD2 produced was measured by exposure to an imaging plate. The enzyme inhibitory rates of test compounds were calculated assuming the amount of production of PGD2 without the test compound being 100%.

[2] = tested on: RBL-2H3, a rat basophilic leukemia cell to express hematopoietic prostaglandin D synthase; experiment: Prostaglandin D2 production inhibition test using cells (A23187-induced, EIA); format: cell-based; details: RBL-2H3 cells, A23187 2.5 μM; for inhibition at 10 µM: Rattus norvegicus, RBL-2H3, Drug Concentration 10 μM, read-out: Inhibitory Ratio of Prostaglandin D2 (PGD2) Production (%); for Inhibitory Ratio of Prostaglandin D2 (PGD2) Production (%): Drug Concentration 10 μM
Description: RBL-2H3, a rat basophilic leukemia cell to express hematopoietic prostaglandin D synthase, was inoculated in a 24 well plate and incubated overnight. After replacement with a medium in the presence or absence of a test compound, preincubation was carried out at 37° C. for one hour. After washing of the cells with PBS(-), the medium was replaced with a Hepes buffer solution (pH7.4) in the presence or absence of the test compound, and incubation was continued at 37° C. for 15 minutes. Then, calcium ionophore (A23187) at a final concentration of 2.5 μM was added, and incubation was carried out at 37° C. for 15 minutes to induce the production of PGD2. The supernatant of the cells was collected, and the amount of PGD2 flowed out in the supernatant was measured by EIA kit by Cayman. The inhibitory ratio of the production of PGD2 by the test compound was calculated assuming the amount of PGD2 produced by A23187 in the absence of the test compound as being 100%.

human hematopoietic prostaglandin D2 synthase, sequence (O60760 whole entry): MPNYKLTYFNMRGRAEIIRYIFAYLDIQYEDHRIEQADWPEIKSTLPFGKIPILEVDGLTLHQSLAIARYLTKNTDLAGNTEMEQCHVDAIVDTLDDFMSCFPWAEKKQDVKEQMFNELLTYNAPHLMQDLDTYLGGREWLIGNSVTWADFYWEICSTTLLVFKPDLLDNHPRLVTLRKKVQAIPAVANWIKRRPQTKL

| SMILES | inhibition at 10 µM ([1]; Drug Concentration 10 μM) [%] | inhibition at 30 µM ([1]; Drug Concentration 30 μM) [%] | Inhibitory Ratio of Prostaglandin D2 (PGD2) Synthase (%) ([1]; Drug Concentration 10 μM) | Inhibitory Ratio of Prostaglandin D2 (PGD2) Synthase (%) ([1]; Drug Concentration 30 μM) | inhibition at 10 µM [2] [%] | Inhibitory Ratio of Prostaglandin D2 (PGD2) Production (%) [2] [%] |
| --- | --- | --- | --- | --- | --- | --- |
| Cc1nn(-c2ccc(Cl)cc2)c(O)c1C=Nn1c(C)nc2ccccc2c1=O [Compound 17, 3-{[1-(4-chlorophenyl)-3-methyl-5-hydroxypyrazol-4-yl]methylidene}amino-2-methyl-3,4-dihydroquinazolin-4-one] | 29 | – | – | – | 21 | – |
| Cc1nn(-c2ccc([N+](=O)[O-])cc2)c(O)c1C=Nn1c(C)nc2ccccc2c1=O [Compound 20, 3-{[3-methyl-1-(4-nitrophenyl)-5-hydroxypyrazol-4-yl]-methylidene}amino-2-methyl-3,4-dihydroquinazolin-4-one] | 37 | 83 | – | – | 15 | – |
| COc1ccc(-c2nc3ccccc3c(=O)n2N=Cc2c(C)nn(-c3ccccc3)c2O)cc1 [Compound 30, 3-[(5-hydroxy-3-methyl-1-phenylpyrazol-4-yl)methylidene]-amino-2-(4-methoxyphenyl)-3,4-dihydroquinazolin-4-one] | – | – | 51 | 71 | – | 28 |

More lines, main results first:

| inhibition at 10 µM ([1]; Drug Concentration 10 μM) [%] | inhibition at 30 µM ([1]; Drug Concentration 30 μM) [%] | Inhibitory Ratio of Prostaglandin D2 (PGD2) Synthase (%) ([1]; Drug Concentration 10 μM) | Inhibitory Ratio of Prostaglandin D2 (PGD2) Synthase (%) ([1]; Drug Concentration 30 μM) | SMILES | inhibition at 10 µM [2] [%] | Inhibitory Ratio of Prostaglandin D2 (PGD2) Production (%) [2] [%] |
| --- | --- | --- | --- | --- | --- | --- |
| 15 | 56 | – | – | Cc1nn(-c2ccccc2)c(O)c1/C=N/n1c(C)nc2ccc(Br)cc2c1=O [Compound 37, 6-bromo-3-[(5-hydroxy-3-methyl-1-phenylpyrazol-4-yl)-methylidene]amino-2-methyl-3,4-dihydroquinazolin-4-one] | 32 | – |
| – | – | 77 | 46 | Cc1nn(-c2ccccc2)c(O)c1C=NN1C(=O)c2ccccc2NC1CO (centres unmarked) [Compound 39, 3-[(5-hydroxy-3-methyl-1-phenylpyrazol-4-yl)methylidene]-amino-2-hydroxymethyl-1,2,3,4-tetrahydroquinazolin-4-one] | – | 70 |
